Values joined by “and” are separate entries in the source; they are usually repeats but may differ in a detail not shown here. Identical values can stand only once. Toxic doses and inconclusive results are not listed. Rule as the data show it: active = T/C of 150% or more; inactive = T/C below 125%.
Test system: L1210 leukemia ip in BDF1 mice, survival T/C
Assay: NCI In Vivo Anticancer Drug Screen. Data for tumor model L1210 Leukemia (intraperitoneal) in B6D2F1 (BDF1) mice
Details: endpoint: mean survival time, higher = longer survival
Procedure, shortened: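 Antitumor effect is assessed in tumor-bearing animals. Survival in the compound arm is compared with a vehicle-dosed control arm and expressed as their quotient.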

[1] = dose: 100.0 mg/kg/injection, schedule: Q04DX003 (ip), vehicle: other
[2] = dose: 200.0 mg/kg/injection, schedule: Q04DX003 (ip), vehicle: other
[3] = dose: 400.0 mg/kg/injection, schedule: Q04DX003 (ip), vehicle: other
[4] = dose: 50.0 mg/kg/injection, schedule: Q01DX009 (ip), vehicle: Klucel (hydroxypropylcellulose) (HPC)
[5] = dose: 50.0 mg/kg/injection, schedule: Q04DX003 (ip), vehicle: Klucel (hydroxypropylcellulose) (HPC)
[6] = dose: 100.0 mg/kg/injection, schedule: Q01DX009 (ip), vehicle: Klucel (hydroxypropylcellulose) (HPC)
[7] = dose: 100.0 mg/kg/injection, schedule: Q04DX003 (ip), vehicle: Klucel (hydroxypropylcellulose) (HPC)
[8] = dose: 200.0 mg/kg/injection, schedule: Q01DX009 (ip), vehicle: Klucel (hydroxypropylcellulose) (HPC)
[9] = dose: 200.0 mg/kg/injection, schedule: Q04DX003 (ip), vehicle: Klucel (hydroxypropylcellulose) (HPC)
[10] = dose: 50.0 mg/kg/injection, schedule: Q01DX009 (ip), vehicle: saline with Tween-80
[11] = dose: 100.0 mg/kg/injection, schedule: Q01DX009 (ip), vehicle: saline with Tween-80
[12] = dose: 200.0 mg/kg/injection, schedule: Q01DX009 (ip), vehicle: saline with Tween-80
[13] = dose: 100.0 mg/kg/injection, schedule: Q04DX003 (ip), vehicle: saline with Tween-80
[14] = dose: 100.0 mg/kg/injection, schedule: Q04DX002 (ip), vehicle: Klucel (hydroxypropylcellulose) (HPC)
[15] = dose: 200.0 mg/kg/injection, schedule: Q04DX002 (ip), vehicle: Klucel (hydroxypropylcellulose) (HPC)
[16] = dose: 400.0 mg/kg/injection, schedule: Q04DX002 (ip), vehicle: Klucel (hydroxypropylcellulose) (HPC)
[17] = dose: 200.0 mg/kg/injection, schedule: Q04DX003 (ip), vehicle: saline with Tween-80
[18] = dose: 400.0 mg/kg/injection, schedule: Q04DX003 (ip), vehicle: saline with Tween-80
[19] = dose: 100.0 mg/kg/injection, schedule: Q01DX001 (ip), vehicle: Klucel (hydroxypropylcellulose) (HPC)
[20] = dose: 200.0 mg/kg/injection, schedule: Q01DX001 (ip), vehicle: Klucel (hydroxypropylcellulose) (HPC)
[21] = dose: 400.0 mg/kg/injection, schedule: Q01DX009 (ip), vehicle: saline with Tween-80
[22] = dose: 50.0 mg/kg/injection, schedule: Q01DX001 (ip), vehicle: carboxymethylcellulose (CMC)
[23] = dose: 100.0 mg/kg/injection, schedule: Q01DX001 (ip), vehicle: carboxymethylcellulose (CMC)
[24] = dose: 200.0 mg/kg/injection, schedule: Q01DX001 (ip), vehicle: carboxymethylcellulose (CMC)

Measured: T/C

COc1ccc(OC)c(NC(=O)c2ccc(N(CCc3cnc4nc(NC(C)=O)[nH]c(=O)c4n3)C(=O)C(F)(F)F)cc2)c1
inactive: dose: 100.0 mg/kg/injection, schedule: Q01DX009 (ip), vehicle: carboxymethylcellulose (CMC) 104 % of control | [1] 97 % of control | dose: 200.0 mg/kg/injection, schedule: Q01DX009 (ip), vehicle: carboxymethylcellulose (CMC) 94 % of control | [2] 97 % of control | dose: 400.0 mg/kg/injection, schedule: Q01DX009 (ip), vehicle: carboxymethylcellulose (CMC) 94 % of control | [3] 92 % of control

CN1CC=C(/C=C/c2cccc3ccccc23)CC1
inactive: dose: 25.0 mg/kg/injection, schedule: Q01DX009 (ip), vehicle: saline 100 % of control | dose: 50.0 mg/kg/injection, schedule: Q01DX009 (ip), vehicle: saline 103 % of control | dose: 100.0 mg/kg/injection, schedule: Q01DX009 (ip), vehicle: saline 114 % of control | dose: 100.0 mg/kg/injection, schedule: Q04DX003 (ip), vehicle: saline 103 % of control

COc1cc2c3c(c1O)-c1c(ccc(OC)c1OC)CC3N(C)CC2 (configuration not stated)
inactive: dose: 100.0 mg/kg/injection, schedule: Q01DX001 (ip), vehicle: saline with Tween-80 103 % of control | dose: 200.0 mg/kg/injection, schedule: Q01DX001 (ip), vehicle: saline with Tween-80 102 % of control | dose: 400.0 mg/kg/injection, schedule: Q01DX001 (ip), vehicle: saline with Tween-80 102 % of control

c1ccc2c(c1)ccc1ccc[s+]c12
inactive: [4] 95 % of control | [5] 108 % of control | dose: 100.0 mg/kg/injection, schedule: Q01DX001 (ip), vehicle: acetone 103 % of control | [6] 94 % of control | [7] 104 % of control | dose: 200.0 mg/kg/injection, schedule: Q01DX001 (ip), vehicle: acetone 103 % of control | [8] 97 % of control | [9] 104 % of control | dose: 400.0 mg/kg/injection, schedule: Q01DX001 (ip), vehicle: acetone 106 % of control

Cc1nc(N)nc(C)c1N=Nc1ccc(Br)cc1
inactive: [1] 90 % of control | [2] 102 % of control | [3] 100 % of control

CNC(=Nc1ccccc1)c1ccc(NC(=O)c2ccc(C(=O)Nc3ccc(C(=Nc4ccccc4)NC)cc3)cc2)cc1
inactive: dose: 15.0 mg/kg/injection, schedule: Q01DX Z (ip), vehicle: saline 100 % of control | dose: 30.0 mg/kg/injection, schedule: Q01DX Z (ip), vehicle: saline 105 % of control | dose: 60.0 mg/kg/injection, schedule: Q01DX Z (ip), vehicle: saline 102 % of control

Cc1cc(C)c(C(=O)O)cc1C(=O)O
inactive: [10] 100 % of control | [11] 100 % of control | [12] 106 % of control

CCCCn1nnc2c(NN)nc(N)nc21
inactive: dose: 25.0 mg/kg/injection, schedule: Q01DX009 (ip), vehicle: saline with Tween-80 102 % of control | dose: 25.0 mg/kg/injection, schedule: Q04DX003 (ip), vehicle: saline with Tween-80 100 % of control | [10] 101 % of control | dose: 50.0 mg/kg/injection, schedule: Q04DX003 (ip), vehicle: saline with Tween-80 94 % of control | [13] 100 % of control

CCc1cc(C)cc(CC)c1N
inactive: [6] 104 % of control | [8] 90 % of control

Cc1cc(Cl)ccc1OC(=O)NC1CCCCC1
inactive: [14] 107 % of control | [15] 96 % of control | [16] 107 % of control

C=CCN(CC=C)c1nc(-c2ccccc2)nc(-c2ccccc2)n1
inactive: dose: 25.6 mg/kg/injection, schedule: Q04DX002 (ip), vehicle: saline with Tween-80 93 % of control | dose: 64.0 mg/kg/injection, schedule: Q04DX002 (ip), vehicle: saline with Tween-80 93 % of control | [13] 92 % of control | dose: 160.0 mg/kg/injection, schedule: Q04DX002 (ip), vehicle: saline with Tween-80 93 % of control | [17] 92 % of control | dose: 400.0 mg/kg/injection, schedule: Q04DX002 (ip), vehicle: saline with Tween-80 89 % of control | [18] 92 % of control

O=C(c1ccccc1)C1(c2ccccc2)OC1(C(=O)c1ccccc1)c1ccccc1 (configuration not stated)
inactive: [19] 94 % of control | [11] 92 % of control | [20] 94 % of control | [12] 101 % of control | dose: 400.0 mg/kg/injection, schedule: Q01DX001 (ip), vehicle: Klucel (hydroxypropylcellulose) (HPC) 87 % of control | [21] 95 % of control

O=C(O)CCC(=O)c1ccc2c3c1CCCC3CC2 (configuration not stated)
inactive: [14] 107 % of control | [15] 101 % of control | [16] 93 % of control

COc1ccccc1N=Nc1c(O)n(-c2ccc(C)cc2)c(=S)n(-c2ccccc2)c1=O
inactive: dose: 50.0 mg/kg/injection, schedule: Q01DX001 (ip), vehicle: Klucel (hydroxypropylcellulose) (HPC) 94 % of control | [19] 87 % of control | [20] 89 % of control

CC(C)=CCN(CC=C(C)C)CCC(C#N)(c1ccc2ccccc2c1)C(C)C (configuration not stated)
inactive: [4] 106 % of control | [6] 95 % of control | [7] 102 % of control | [9] 98 % of control

CC(=O)Nc1ccccc1C#N
inactive: dose: 100.0 mg/kg/injection, schedule: Q04DX003 (ip), vehicle: saline sonified 104 % of control | dose: 200.0 mg/kg/injection, schedule: Q04DX003 (ip), vehicle: saline sonified 101 % of control | dose: 400.0 mg/kg/injection, schedule: Q04DX003 (ip), vehicle: saline sonified 97 % of control

O=C(NC(Cc1ccccc1)C(=O)O)c1ccccc1 (configuration not stated)
inactive: [11] 91 % of control | [13] 94 % of control and 92 % of control | [12] 95 % of control | [17] 96 % of control and 95 % of control | [21] 90 % of control | [18] 97 % of control and 90 % of control

O=C1NC(CCCl)C(=O)NC1CCCl (configuration not stated)
inactive: [22] 107 % of control | [23] 101 % of control | [24] 91 % of control

COc1ccc(OC)c2c(OC(C)=O)c3ccccc3c(OC(C)=O)c12
inactive: [22] 98 % of control | [23] 108 % of control | [24] 98 % of control | dose: 400.0 mg/kg/injection, schedule: Q01DX001 (ip), vehicle: carboxymethylcellulose (CMC) 110 % of control

c1ccc(-c2ccc([Si](c3ccccc3)(c3ccc(-c4ccccc4)cc3)c3ccc(-c4ccccc4)cc3)cc2)cc1
inactive: [4] 91 % of control | [5] 93 % of control | [6] 93 % of control | [7] 89 % of control | [8] 93 % of control | [9] 88 % of control

CC(=O)n1cc(C2CC(=O)OC3=C2CC(=O)C(C)(C)C3)c2ccccc21 (configuration not stated)
inactive: [11] 100 % of control | [13] 95 % of control | [12] 96 % of control | [17] 101 % of control | [21] 91 % of control | [18] 101 % of control

— PubChem BioAssay AID248 (DTP/NCI, 2004)
